Like-named read-outs stand apart in the source and are kept apart here.
How the values were obtained:
CB1 receptor [1] = biological target: T1, CB1 receptor (Homo sapiens, UniProt P21554); assay: Human cannabinoid receptor bonding inhibition test ([3H]CP55940), CB1; type: binding; parameters: expressed in transfected cells; membrane fraction
[2] = tested on: scratching action induced by Compound 48/80; assay: Anti-pruritic activity test by application (Compound 48/80 scratching); type: in vivo, mouse (Crj:CD-1 (ICR)); settings: Mus musculus, topical, read-out: Itching inhibition ratio % (Concentration %)
Method: 1) Preparation of the compound and the reagent: The compound being tested was dissolved in acetone (SIGMA). Compound 48/80 (SIGMA) was dissolved in physiological saline (m by Otsuka Pharmaceutical Co., Ltd.) so as to be 60 μg/mL.
2) Animals: Female Crj: CD-1 (ICR) mice of 6 to 10 age in week (Japan Charles Liver) were used as laboratory animals. The animals were fed in the barrier breeding room where […] in room temperature, 30 to 70% in humidity, and the light and shade condition existed every 12 hours and feed (CE-2: Japan Crea) and the drinking water were freely taken. The hair of dorsa (from the cervical region of the back to the center of the back) of the animals were cut with a hair clipper two days or more before the anti-pruritic activity is evaluated, those with no wound, rubefaction, and thickening of the skin on the dehaired part were chosen and supplied to the experiment on the day of the evaluation. 3) Evaluation procedures: The acetone solution of the compound being tested was applied by 50 μL on the dehaired parts of the mice with a pipeter. On the mice of the control group, 50 μL of acetone was applied. The 15 minutes later, 50 μL (corresponding to 3 μg) of Compound 48/80 solution was injected intradermally in the compound applied parts with the use of a injector (Terumo Corporation), the mice were individually put in five observation cages made of acrylate resin at once, and the scratching action (action of scratching the injection part by the hind leg) frequency during 30 minutes was measured. The evaluation was carried out in one group of 5 to 7 mice. 4) Data processing: The experiment results were shown by the mean values. The test of the significant difference of the compound applying group to the control group was conducted with Welch's t-test, and p<0.05 was assumed to be significant.

CB2 receptor [3] = biological target: T2, CB2 receptor (Homo sapiens, UniProt P34972); assay: Human cannabinoid receptor bonding inhibition test ([3H]CP55940), CB2; type: binding; parameters: expressed in transfected cells; membrane fraction
CB1 receptor [4] = biological target: T1, CB1 receptor; assay: cAMP formation inhibition experiment through a cannabinoid receptor (forskolin stimulation), CB1; type: cell-based; parameters: expressed in transfected cells; host or cells: CHO cells
Method: A compound being tested was added in the CHO cell which had mad human CB1 or CB2 receptor reveal and incubated for 15 minutes, and then forskolin (the final concentration 4 μM, and manufactured by SIGMA Corp.) was added and the mixture was incubated for 20 minutes. After the reaction had been stopped by adding 1M hydrochloric acid, the amount of cAMP in the supernatant was measured with the use of Cyclic AMP kit (made by the CIS Diagnostic Corp.).

CB2 receptor [5] = biological target: T2, CB2 receptor; assay: cAMP formation inhibition experiment through a cannabinoid receptor (forskolin stimulation), CB2; type: cell-based; parameters: expressed in transfected cells; host or cells: CHO cells
[6] = [3H]CP55940 0.5 nM, membrane preparation of CHO cells expressing CB1, Ki calculated from IC50, read-out: Binding activity (nM) CB1
[7] = read-out: Agonist activity (nM) CB1
[8] = [3H]CP55940 0.5 nM, membrane preparation of CHO cells expressing CB2, Ki calculated from IC50, read-out: Binding activity (nM) CB2
[9] = read-out: Binding activity (nM) CB1
[10] = read-out: Agonist activity (nM) CB2

T2 sequence (P34972 whole entry): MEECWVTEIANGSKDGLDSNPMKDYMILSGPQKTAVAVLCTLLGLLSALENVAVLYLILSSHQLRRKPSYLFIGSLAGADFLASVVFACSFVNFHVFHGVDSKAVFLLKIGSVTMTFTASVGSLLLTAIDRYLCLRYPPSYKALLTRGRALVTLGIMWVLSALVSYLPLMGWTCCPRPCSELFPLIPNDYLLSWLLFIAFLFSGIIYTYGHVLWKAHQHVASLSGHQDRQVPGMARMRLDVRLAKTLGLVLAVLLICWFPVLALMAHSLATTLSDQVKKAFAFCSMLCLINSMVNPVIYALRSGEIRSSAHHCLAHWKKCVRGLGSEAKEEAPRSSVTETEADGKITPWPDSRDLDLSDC
T1 sequence (P21554 whole entry): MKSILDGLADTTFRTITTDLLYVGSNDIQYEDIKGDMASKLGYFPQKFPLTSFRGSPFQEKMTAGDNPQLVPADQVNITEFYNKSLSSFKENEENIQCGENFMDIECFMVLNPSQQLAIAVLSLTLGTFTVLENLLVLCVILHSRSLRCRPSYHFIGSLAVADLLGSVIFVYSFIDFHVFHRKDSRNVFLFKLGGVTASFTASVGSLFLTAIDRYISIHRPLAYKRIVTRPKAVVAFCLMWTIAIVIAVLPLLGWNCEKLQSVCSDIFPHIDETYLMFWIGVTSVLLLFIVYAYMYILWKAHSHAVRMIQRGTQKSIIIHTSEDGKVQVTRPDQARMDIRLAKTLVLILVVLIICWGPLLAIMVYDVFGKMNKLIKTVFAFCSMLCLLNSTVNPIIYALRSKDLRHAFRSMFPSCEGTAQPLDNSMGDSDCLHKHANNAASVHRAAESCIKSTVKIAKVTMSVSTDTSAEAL

| Compound | Ki (CB1 receptor [1]) | Ki (CB2 receptor [3]) | Ki (CB1 receptor [1]; [6]) | IC50 (CB1 receptor [4]) | IC50 (CB2 receptor [5]) | IC50 (CB1 receptor [4]; [7]) | also measured |
| --- | --- | --- | --- | --- | --- | --- | --- |
| CCCCn1c2c(cc(C(=O)NC3CCCCC3)c1=O)CCCCCC2 [Compound 10-035, reference compound] | 19 nM | 0.2 nM |  |  |  |  | inhibition in vivo at 5 % [2]: 22% |
| O=C(NC1(C(=O)O)CCCCC1)c1cc2c(n(Cc3ccc(F)c(F)c3)c1=O)CCCCCC2 [XI-017] |  | 6.6 nM | 441 nM | 127 nM | 11 nM |  |  |
| CCc1c(C)cc(C(=O)N[C@H](C(=O)OC)C(C)C)c(=O)n1Cc1ccc(F)cc1 [Compound I-196] | < 2 nM | < 2 nM |  |  |  | < 2 nM | inhibition in vivo at 0.5 % [2]: 47% |
| CCCCn1c(CCC)c(CC)cc(C(=O)N[C@H](C(=O)OC)C(C)(C)C)c1=O [Compound I-211] | 2.4 nM | < 2 nM |  |  |  | < 2 nM | inhibition in vivo at 1.5 % [2]: 70% |
| CCc1c(C)cc(C(=O)N[C@H](C(=O)OC)C(C)C)c(=O)n1CC1CCCCC1 [Compound I-134] | < 2 nM | < 2 nM |  |  |  | < 2 nM | inhibition in vivo at 0.5 % [2]: 91% |
| CCCCn1c(CCC)c(CC)cc(C(=O)NC2(CC(=O)O)CCCCC2)c1=O [Compound X-174] |  | 8.9 nM | > 2000 nM | > 2000 nM | 9.8 nM |  |  |
| COC(=O)[C@@H](NC(=O)c1cc2c(n(Cc3ccc(F)cc3)c1=O)CCCCCC2)C(C)(C)C [Compound I-263] | < 2 nM | < 2 nM |  |  |  | < 2 nM | inhibition in vivo at 1.5 % [2]: 57% |
| CCCCn1c(CCC)c(CC)cc(C(=O)NC(CC)(CC)CC(=O)O)c1=O [Compound X-196] |  | 31 nM | > 2000 nM | > 2000 nM | 45 nM |  |  |
| CCc1c(C)cc(C(=O)NC2(C(=O)O)CCCCC2)c(=O)n1Cc1ccc(F)cc1 [Compound I-493] | > 2000 nM |  |  |  |  |  | IC50 (CB2 receptor [5]; inhibition of forskolin (4 μM)-stimulated cAMP formation, CHO cells expressing human CB2, read-out: Agonist activity (nM) CB2): 24 nM; Ki (CB2 receptor [3]; [8]): 36 nM |
| O=C(NC1(C(=O)O)CCCCCCC1)c1cc2c(n(CC3CCCCC3)c1=O)CCCCCC2 [Compound X-240] |  |  | 793 nM |  | < 2 nM |  | IC50 (CB1 receptor [4]; inhibition of forskolin (4 μM)-stimulated cAMP formation, CHO cells expressing human CB1, read-out: Agonist activity (nM) CB1): 468 nM; Ki (CB2 receptor [3]; [8]): 6.2 nM |
| CCc1c(C)cc(C(=O)N[C@H](C(=O)OC)C(C)(C)C)c(=O)n1CC1CCCCC1 [Compound I-252] | < 2 nM | < 2 nM |  |  |  | < 2 nM | inhibition in vivo at 1.5 % [2]: 96% |
| CC(C)OC(=O)C(C)(C)NC(=O)c1cc2c(n(CC3CCCCC3)c1=O)CCCCCC2 [Compound I-301] | < 2 nM | < 2 nM |  |  |  | < 2 nM | inhibition in vivo at 0.5 % [2]: 39% |
| CC(C)(NC(=O)c1cc2c(n(CC3CCCCC3)c1=O)CCCCCC2)C(=O)OCC(O)CO (stereo not drawn) [Compound I-305] | < 2 nM | < 2 nM |  |  |  | < 2 nM | inhibition in vivo at 0.5 % [2]: 61% |
| CCc1c(C)cc(C(=O)Nc2nc(CC(=O)O)cs2)c(=O)n1Cc1ccc(F)cc1 [Compound X-222] |  | 43 nM | 1620 nM | > 2000 nM | 57 nM |  |  |
| CCc1c(C)cc(C(=O)NC2(C(=O)O)CCCCCCCCC2)c(=O)n1Cc1ccc(F)cc1 [Compound X-231] |  | 38 nM | > 2000 nM | > 2000 nM | 35 nM |  |  |
| COC(=O)[C@@H](NC(=O)c1cc2c(n(CCCC#N)c1=O)CCCCCC2)C(C)C [Compound I-266] | 12 nM | < 2 nM |  |  |  | 12 nM | inhibition in vivo at 2 % [2]: 64% |
| CCCCn1c(CCC)c(CC)cc(C(=O)NC2(C(=O)O)CCCCCC2)c1=O [Compound X-241] |  | 57 nM | > 2000 nM | > 2000 nM | 26 nM |  |  |
| CCCCn1c2c(cc(C(=O)NCc3ccccc3)c1=O)CCCCCC2 [Compound 4-101, reference compound] |  | 1.9 nM |  |  |  |  | inhibition in vivo at 5 % [2]: 7.5% |
| CCCCn1c2c(cc(C(=O)NC(CC)(CC)CC(=O)O)c1=O)CCCCCC2 [Compound X-128] |  | 10 nM | 608 nM | 152 nM | 3 nM |  |  |

| Compound | Ki (CB1 receptor [1]) | Ki (CB2 receptor [3]) | Ki (CB1 receptor [1]; [6]) | IC50 (CB1 receptor [4]) | IC50 (CB2 receptor [5]) | IC50 (CB1 receptor [4]; [7]) | also measured |
| --- | --- | --- | --- | --- | --- | --- | --- |
| CCCCn1c2c(cc(C(=O)NC3(C(=O)OC)CCCCC3)c1=O)CCCCCC2 [Compound I-124] | 3.6 nM | < 2 nM |  |  |  | < 2 nM | inhibition in vivo at 0.5 % [2]: 49% |
| CCc1c(C)cc(C(=O)Nc2nc(CC(=O)O)cs2)c(=O)n1Cc1ccc(F)c(F)c1 [XI-025] |  | 54 nM |  | > 2000 nM |  |  | Ki (CB1 receptor [1]; [9]): 1360 nM; IC50 (CB2 receptor [5]; [10]): 209 nM |
| CCc1c(C)cc(C(=O)NC2(C(=O)O)CCCCC2)c(=O)n1Cc1ccc(F)c(F)c1 [XI-027] |  | 54 nM |  | > 2000 nM |  |  | Ki (CB1 receptor [1]; [9]): 1360 nM; IC50 (CB2 receptor [5]; [10]): 209 nM |
| CCCCn1c2c(cc(C(=O)NC3(CC(=O)O)CCCC3)c1=O)CCCCCC2 [Compound X-235] | 950 nM | 3.7 nM |  |  | 4.7 nM | 270 nM |  |
| CCCCn1c2c(cc(C(=O)N[C@H](C(=O)OC)C(C)C)c1=O)CCCCCC2 [Compound I-111] | 3.5 nM | < 2 nM |  |  |  | < 2 nM | inhibition in vivo at 0.1 % [2]: 55% |
| CCc1c(C)cc(C(=O)NCC2(CC(=O)O)CCCCC2)c(=O)n1Cc1ccc(F)cc1 [Compound X-197] | 1260 nM | 41 nM |  |  | 7.2 nM | 708 nM |  |
| CCc1c(C)cc(C(=O)Nc2nc(CC(=O)O)ns2)c(=O)n1CC1CCCCC1 [Compound X-133] |  | 5.5 nM | > 2000 nM | > 2000 nM | < 2 nM |  |  |
| COC(=O)[C@@H](NC(=O)c1cc2c(n(Cc3ccc(F)cc3)c1=O)CCCCCC2)C(C)C [Compound I-253] | < 2 nM | < 2 nM |  |  |  | < 2 nM | inhibition in vivo at 1.5 % [2]: 70% |
| CCCc1c(CC)cc(C(=O)N[C@H](C(=O)OC)C(C)C)c(=O)n1CC1CCCCC1 [Compound I-133] | 5 nM | < 2 nM |  |  |  | 4 nM | inhibition in vivo at 0.5 % [2]: 56% |
| CN(CCO)C(=O)C(C)(C)NC(=O)c1cc2c(n(CC3CCCCC3)c1=O)CCCCCC2 [Compound I-019, 1-cyclohexylmethyl-2-oxo-1,2,5,6,7,8,9,10-octahydro-cycloocta[b]pyridine-3-carboxylic acid {1-[(2-hydroxyethyl)-methyl-carbamoyl]-1-methyl-ethyl}-amide] |  | < 2 nM | 2.9 nM |  |  | 8.1 nM | inhibition in vivo at 1 % [2]: 74% |
| CCCCn1c2c(cc(C(=O)NC(CCC(=O)O)CC(C)C)c1=O)CCCCCC2 (stereo not drawn) [Compound X-202] |  | 46 nM | 1180 nM | > 2000 nM | 81 nM |  |  |
| CCCCn1c2c(cc(C(=O)N[C@H](CC(=O)O)CC(C)C)c1=O)CCCCCC2 [Compound X-138] |  | 42 nM | > 2000 nM | > 2000 nM | 30 nM |  |  |
| CCCCn1c2c(cc(C(=O)NC3(CC(=O)O)CCCCC3)c1=O)CCCCCC2 [Compound X-157] |  | 3.4 nM | 270 nM | 268 nM | < 2 nM |  |  |
| CCc1c(C)cc(C(=O)NC2(CC(=O)O)CCCC2)c(=O)n1Cc1ccc(F)cc1 [Compound X-234] |  | 4 nM | 482 nM | 375 nM | 6.1 nM |  |  |
| CCCCn1c2c(cc(C(=O)NC3(C(=O)O)CCCCCCCCC3)c1=O)CCCCCC2 [Compound X-232] |  | 15 nM | > 2000 nM | > 2000 nM | 29 nM |  |  |
| CCCCn1c(CCC)c(CC)cc(C(=O)NC2(CC(=O)O)CCCC2)c1=O [Compound X-233] |  | 24 nM | > 2000 nM | > 2000 nM | 15 nM |  |  |
| O=C(O)C1=C(NC(=O)c2cc3c(n(CC4CCCCC4)c2=O)CCCCCC3)CCCC1 [Compound X-126] | 873 nM | 31 nM |  |  | 35 nM | 131 nM |  |
| CCc1c(C)cc(C(=O)NC2(C(=O)O)CCCCCCC2)c(=O)n1Cc1ccc(F)cc1 [Compound X-239] |  | 10 nM | 1420 nM | > 2000 nM | 3.6 nM |  |  |
